Reference: US20120288531A1, “PHARMACEUTICAL COMPOSITIONS FOR DELIVERY OF FERRIC IRON COMPOUNDS, AND METHODS OF USE THEREOF” (priority 2011, published 2012)

Key:
[1] = Stability of ferric acetyl-hydroxamate complex in pre-hydrophilic fraction; conditions: pre-hydrophilic fraction of Table 1 (10% PVP-12 and 15% NaC8), 4 hours
[2] = one month at 25° and 40° C.
Blood hemoglobin = experiment: Repeated doses: effect on blood hemoglobin in normal SD rats; format: in vivo; conditions: ROA IJ (FAC) or PO (ferrous sulfate)
Experimental: Blood samples were collected pre-dosing (Day 1) and post-dosing (Day 22). Blood hemoglobin was evaluated using colorimetric assay.

Q: With CC(=O)N[O-].CC(=O)N[O-].CC(=O)N[O-].[Fe+3] [ferric acetyl-hydroxamate] as the molecule, how does the “precipitation and Fe2+ formation” value [1] read?
A: Its value is “Neither precipitation nor Fe^2+ formation was observed”.

Q: And the “stability in the pre-hydrophilic fraction” value [1]?
A: Its value is “stable for 4 hours”.

Q: Which “stability in the oily suspension” value [2] does the source give for O.O=C([O-])CN(CCN(CC(=O)[O-])CC(=O)[O-])CC(=O)[O-].[Fe+3].[Na+] [ferric sodium EDTA, ethylenediaminetetraacetic acid iron(III) sodium salt hydrate] here?
A: The value was “good stability”.

Q: Which “Hb at Day 22 (Mean ± SE)” value (Blood hemoglobin; post-dosing, daily for 21 days (18 doses), 6.3 mg iron per dose) does the source give for ferrous sulfate here?
A: Its value is 13.9 ± 0.2 g/dL.

Q: And the “Hb at Day 1 (Mean ± SE)” value (Blood hemoglobin; pre-dosing, normal SD rats)?
A: Its value is 14.2 ± 0.2 g/dL.
